Test results reported in article PMC12582325 (Proceedings of the National Academy of Sciences of the …, 2025).
Several values for one entry are separate records, joined by “and”; a condition that tells them apart may be missing. Equal entries are not always repeated. Where two headings read alike, the source gives them in different places. Where a SMILES comes first, the peptide text is derived from it.

Experiments:
Bb.Ste2 [1] = format: cell-based, Beauveria bassiana; conditions: YPL1 library cocultured with Bb.Ste2 strain GEN88, 20 h, 2 d diploid enrichment, NextSeq 500
Fo.Ste2 [2] = format: cell-based, Fusarium oxysporum
Bc.Ste2 [3] = format: cell-based, Botrytis cinerea; conditions: YPL1 library cocultured with Bc.Ste2 strain GEN89, 20 h, 2 d diploid enrichment, NextSeq 500
F. oxysporum germ tubes = conditions: gradient of 400 μM pheromone against the solvent (50% methanol); 13 h; water-agar; three biological replicates; Fig. 5A
Description: For the B. bassiana and F. oxysporum chemotropism assay and plant infection assays the pheromones were dissolved in 50% (v/v) MeOH to reach a concentration of 4,000 μM.
Fungal chemotropism was conducted as previously described ([11]). For each compound or combination of compounds tested, 300 hyphal tips were scored. All experiments were performed in three biological replicates.

Mo Ste2 GPCR = format: cell-based, Magnaporthe oryzae; conditions: Fig. 1D mating matrix; pheromone secreted by MATa strain, GPCR in MATα strain; deep well plate, 20 h coculture; three technical plating replicates
Sc Ste2 = biological target: T1, Sc Ste2 (Saccharomyces cerevisiae, UniProt D6VTK4); format: cell-based
T1 construct: The native Sc system and an empty construct were added as positive and negative controls; endogenous in cells; host or cells: Saccharomyces cerevisiae wild-type control strains GEN18 (MATa) and GEN27 (MATα)
T1 sequence (D6VTK4 1-431): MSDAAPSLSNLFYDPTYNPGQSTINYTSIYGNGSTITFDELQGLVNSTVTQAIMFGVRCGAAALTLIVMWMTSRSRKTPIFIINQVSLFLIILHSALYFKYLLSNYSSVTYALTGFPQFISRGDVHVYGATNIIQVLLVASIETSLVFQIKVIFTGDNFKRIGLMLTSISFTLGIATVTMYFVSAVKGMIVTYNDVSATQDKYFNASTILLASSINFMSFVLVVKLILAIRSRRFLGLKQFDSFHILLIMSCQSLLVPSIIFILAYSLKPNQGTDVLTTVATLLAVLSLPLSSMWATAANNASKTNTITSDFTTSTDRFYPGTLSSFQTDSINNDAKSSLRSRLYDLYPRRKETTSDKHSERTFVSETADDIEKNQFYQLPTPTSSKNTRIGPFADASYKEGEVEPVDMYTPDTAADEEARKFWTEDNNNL

Bb.Ste2 [4] = format: cell-based, Beauveria bassiana; conditions: for Diploid frequency (%): 20 h coculture; for diploid frequency (%) / average (diploid colonies): GPCR strain GEN47 HIS; for average (diploid colonies): dilution 500, mean of Rep1-3
Hj.Hpr2 = format: cell-based, Hypocrea jecorina
Fo.Ste2 [5] = assay: YeMaP Library-on-One: YPL1 pheromone library enrichment by mating, NGS; format: cell-based, Fusarium oxysporum; conditions: YPL1 library cocultured with Fo.Ste2 strain GEN90, 20 h, 2 d diploid enrichment, NextSeq 500
Bb.Ste2 [6] = format: cell-based, Beauveria bassiana
Ca.Ste2 = format: cell-based, Candida albicans
Bc.Ste2 [7] = format: cell-based, Botrytis cinerea
Fg.Ste2 = format: cell-based, Fusarium graminearum

Question: Which results are given for `C[C@@H](O)[C@H](NC(=O)[C@H](CS)NC(=O)[C@@H](N)Cc1c[nH]c2ccccc12)C(=O)N[C@@H](Cc1c[nH]c2ccccc12)C(=O)N[C@@H](CCCNC(=N)N)C(=O)NCC(=O)N[C@@H](CCC(N)=O)C(=O)N1CCC[C@H]1C(=O)N[C@@H](CS)C(=O)N[C@@H](Cc1c[nH]c2ccccc12)C(=O)O` [Fo] (H-WCTWRGQPCW-OH; N-terminus assumed)?
Answer: Enrichment after mating, reads per million minus library before coculture (Bb.Ste2 [1]): > 340,000 RPM; barcode qPCR of diploids, Fo.Ste2 x pheromone strain (Fo.Ste2 [2]): 0.439; Sup.Fig.7B - Fo, group mean (Fo.Ste2 [2]; pH=6): 1.65; Sup.Fig.7B - Fo, group mean (Fo.Ste2 [2]; pH=7): 0.8933; qPCR, Fo + Fo (Fo.Ste2 [2]; ph=6): 0.386 and 0.413 and 0.467; qPCR, Fo + Fo (Fo.Ste2 [2]; ph=7): 0.660 and 0.439 and 0.352; Enrichment after mating, reads per million minus library before coculture (Bc.Ste2 [3]): > 340,000 RPM; Chemotropic response in F. oxysporum germ tubes (F. oxysporum germ tubes): significant chemotropic response; Diploid frequency (%) (Mo Ste2 GPCR): 0.0%; Diploid frequency (%) (Sc Ste2): 0.0%; Diploid frequency (%) (Bb.Ste2 [4]; Fig. 1D mating matrix, pheromone secreted by MATa strain, GPCR in MATα strain, deep well plate, three technical plating replicates): 0.7%; Diploid frequency (%) (Bb.Ste2 [4]; Fig. 1F validation in culture tubes, secreted pheromone, three biological and three technical replicates): 4.9%; diploid frequency (%) (Bb.Ste2 [4]; co-culture replicate 1): 4.61%; average (diploid colonies) (Bb.Ste2 [4]; co-culture replicate 1): 22; diploid frequency (%) (Bb.Ste2 [4]; co-culture replicate 2): 3.74%; average (diploid colonies) (Bb.Ste2 [4]; co-culture replicate 2): 17.67; diploid frequency (%) (Bb.Ste2 [4]; co-culture replicate 3): 6.44%; average (diploid colonies) (Bb.Ste2 [4]; co-culture replicate 3): 31.33; barcode qPCR of diploids, Hj.HPR2 x pheromone strain (Hj.Hpr2): 0; diploid barcode qPCR signal relative to control (2^-dCt) (Hj.Hpr2): 0; Enrichment after mating, reads per million minus library before coculture (Fo.Ste2 [5]): > 340,000 RPM; diploid barcode qPCR signal relative to control (2^-dCt) (Bb.Ste2 [6]): 0; Diploid frequency (%) (Ca.Ste2): 0.0%; Diploid frequency (%) (Bc.Ste2 [7]): 0.1% and 0.3%; average (diploid colonies) (Bc.Ste2 [7]): 0.67 and 1; diploid frequency (%) (Bc.Ste2 [7]): 0.19% and 0.28%; Fold change yEGFP (Fg.Ste2; Fg.Ste2 biosensor CPK366, 10 μM synthetic alpha pheromone, normalized to yEGFP background (receptor without pheromone), four biological replicates, Fig. 1E): 187; Activation of Fg.Ste2 biosensor, in words (Fg.Ste2; chemically synthesized pheromone): higher EC50 values
